Columns and labels:
[1] = tested on: MDA-MB-231; assay: Cytotoxicity against human MDA-MB-231 cells assessed as reduction in cell viability incubated for 96 hrs by MTT method; type: functional, cell-based; details: MDA-MB-231, 96 h
[2] = tested on: MDA-MB-468; assay: Cytotoxicity against human MDA-MB-468 cells assessed as reduction in cell viability incubated for 96 hrs by MTT method; type: functional, cell-based; details: MDA-MB-468, 96 h
[3] = tested on: MCF7; assay: Cytotoxicity against human MCF7 cells assessed as reduction in cell viability incubated for 96 hrs by MTT method; type: functional, cell-based; details: MCF7, 96 h
[4] = tested on: L02; assay: Cytotoxicity against human L02 cells assessed as reduction in cell viability incubated for 96 hrs by MTT method; type: cell-based; details: L02, 96 h
[5] = tested on: MCF-10A; assay: Cytotoxicity against human MCF-10A cells assessed as reduction in cell viability incubated for 96 hrs by MTT method; type: cell-based
[6] = tested on: HEK293; assay: Cytotoxicity against HEK-293 cells assessed as reduction in cell viability incubated for 96 hrs by MTT method; type: cell-based; details: Homo sapiens, HEK293, 96 h

CC1(C)C(=O)CC[C@]2(C)[C@@H]1CC[C@@]13C[C@@H](CC[C@H]12)[C@@](O)(CO)C3
IC50 [1]: > 5000 nM
IC50 [2]: > 5000 nM
IC50 [3]: > 5000 nM

C=C1C(=O)C2=C[C@H]1CCC(=O)[C@@]1(C)[C@H](C[C@H]2OCC)C(C)(C)CC[C@H]1OC(C)=O
IC50 [1]: 677 nM
IC50 [2]: 236 nM
IC50 [3]: 266 nM

C=C1C(=O)C2=C[C@H]1CCC(=O)[C@]1(C)C(=O)CCC(C)(C)[C@H]1C[C@H]2OC(C)=O
IC50 [1]: 28.7 nM
IC50 [2]: 215 nM
IC50 [3]: 538 nM

C[C@H]1C(=O)[C@]23C[C@H]1CC[C@@]2(O)[C@]1(C)[C@H](O)CCC(C)(C)[C@H]1C[C@H]3O
IC50 [1]: > 5000 nM
IC50 [2]: > 5000 nM
IC50 [3]: > 5000 nM

C=C1C(=O)O[C@H]2C3=C(CC[C@@H]12)[C@@]1(C)[C@H](CC3=O)C(C)(C)CC[C@H]1OC(C)=O
IC50 [1]: 1770 nM
IC50 [2]: 842 nM
IC50 [3]: 1240 nM

C=C(C)CC(=O)O[C@@H]1C[C@@H]2C(C)(C)CC[C@@H](O)[C@@]2(C)C(=O)CC[C@@H]2C=C1C(=O)C2=C
IC50 [1]: 564 nM
IC50 [2]: 890 nM
IC50 [3]: 1190 nM

C=C1C(=O)C2=C[C@H]1CCC(=O)[C@@]1(C)[C@H](C[C@H]2O)C(C)(C)CC[C@H]1OC(C)=O
IC50 [1]: 177 nM
IC50 [2]: 228 nM
IC50 [3]: 120 nM

COc1cccc2c1C(=O)c1c(O)c3c(c(O)c1C2=O)C[C@@](O)(C(=O)CO)C[C@@H]3O[C@H]1C[C@H](N)[C@H](O)[C@H](C)O1 [DOXORUBICIN]
IC50 [1]: 80.5 nM
IC50 [4]: 256 nM
IC50 [2]: 52.1 nM
IC50 [5]: 33 nM
IC50 [6]: 106 nM

C=C1C(=O)C2=C[C@H]1CCC(=O)[C@]1(C)C(=O)CCC(C)(C)[C@H]1C[C@H]2O
IC50 [1]: 124 nM
IC50 [2]: 194 nM
IC50 [3]: 379 nM

C=C1C(=O)C2=C[C@H]1CCC(=O)[C@]1(C)[C@H](O)CCC(C)(C)[C@H]1C[C@H]2OC(C)=O
IC50 [1]: 561 nM
IC50 [2]: 257 nM
IC50 [3]: 587 nM

C=C1C(=O)C2=C[C@H]1CCC(=O)[C@]1(C)[C@H](O)CCC(C)(C)[C@H]1C[C@H]2OC(=O)c1ccccc1
IC50 [1]: 466 nM
IC50 [2]: 301 nM
IC50 [3]: 999 nM

C=C1C(=O)C2=C[C@H]1CCC(=O)[C@]1(C)[C@H](O)CCC(C)(C)[C@H]1C[C@H]2OC(=O)CC
IC50 [1]: 983 nM
IC50 [2]: 893 nM
IC50 [3]: 999 nM

C=C1C(=O)[C@@]23[C@H](O)C[C@@H]4C(C)(C)CC[C@@H](O)[C@@]4(C)[C@]2(O)CC[C@@H]1[C@H]3O
IC50 [1]: 153 nM
IC50 [2]: 116 nM
IC50 [3]: 248 nM

C=C1C(=O)C2=C[C@H]1CCC(=O)[C@]1(C)[C@H](O)CCC(C)(C)[C@H]1C[C@H]2OC
IC50 [1]: 185 nM
IC50 [2]: 121 nM
IC50 [3]: 215 nM

C=C1C(=O)C2=C[C@H]1CCC(=O)[C@]1(C)C(=O)CCC(C)(C)[C@H]1C[C@H]2OC(=O)CCl
IC50 [1]: 1610 nM
IC50 [2]: 345 nM
IC50 [3]: 505 nM

C=C1C(=O)C2=C[C@H]1CCC(=O)[C@]1(C)[C@H](O)CCC(C)(C)[C@H]1C[C@H]2OC(=O)CCl
IC50 [1]: 551 nM
IC50 [2]: 909 nM
IC50 [3]: 1090 nM

CC1(C)C(=O)CC[C@]2(C)[C@@H]1CC[C@@]13C[C@@H](CC[C@H]12)[C@@H](CO)C3
IC50 [1]: > 5000 nM
IC50 [2]: > 5000 nM
IC50 [3]: > 5000 nM

C=CC(=O)O[C@@H]1C[C@@H]2C(C)(C)CC[C@@H](O)[C@@]2(C)C(=O)CC[C@@H]2C=C1C(=O)C2=C
IC50 [1]: 166 nM
IC50 [2]: 382 nM
IC50 [3]: 1220 nM

C[C@H]1C(=O)C2=C[C@H]1CCC(=O)[C@]1(C)[C@H](O)CCC(C)(C)[C@H]1C[C@H]2O
IC50 [1]: > 5000 nM
IC50 [2]: > 5000 nM
IC50 [3]: > 5000 nM

C=C1C(=O)[C@]23O[C@H]2[C@H]1CCC(=O)[C@]1(C)[C@H](O)CCC(C)(C)[C@H]1C[C@H]3O
IC50 [1]: 473 nM
IC50 [2]: 319 nM
IC50 [3]: 1600 nM

CC1(C)C(=O)CC[C@]2(C)[C@@H]1CC[C@]13C[C@H]4C[C@H](O[C@@]4(C)C1)[C@H]32
IC50 [1]: > 5000 nM
IC50 [2]: > 5000 nM
IC50 [3]: > 5000 nM

C=C1C(=O)C2=C[C@H]1CCC(=O)[C@@]1(C)[C@H](C[C@H]2OC(=O)CCl)C(C)(C)CC[C@H]1OC(C)=O
IC50 [1]: 1080 nM
IC50 [2]: 643 nM
IC50 [3]: 235 nM

C=C1C(=O)C2=C[C@H]1CCC(=O)[C@@]1(C)[C@H](C[C@H]2OC(C)=O)C(C)(C)CC[C@H]1OC(C)=O
IC50 [1]: 978 nM
IC50 [2]: 762 nM
IC50 [3]: 226 nM

C=CC(=O)O[C@@H]1C[C@@H]2C(C)(C)CC[C@@H](OC(=O)C=C)[C@@]2(C)C(=O)CC[C@@H]2C=C1C(=O)C2=C
IC50 [1]: 237 nM
IC50 [2]: 395 nM
IC50 [3]: 1120 nM

C=C1C(=O)C2=C[C@H]1CCC(=O)[C@]1(C)C(=O)CCC(C)(C)[C@H]1C[C@H]2OC(=O)c1ccccc1
IC50 [1]: 2000 nM
IC50 [2]: 2070 nM
IC50 [3]: 882 nM

From ChEMBL document CHEMBL5036330, “Discovery of 8,9-seco-ent-Kaurane Diterpenoids as Potential Leads for the Treatment of Triple-Negative Breast Cancer” (J Med Chem, 2021)
